# Read-outs that look alike come from different tables or passages of the source.
# How the values were obtained:
# Format in all cases: cell-based
# [1] = tested on: S. aureus; assay: MIC testing by broth microdilution, clinical isolates (Example 4); conditions: Staphylococcus aureus
# Method: (§1) The Gram-positive organisms tested were S. epidermidis, methicillin resistant S. epidermidis (MRSE), S. aureus, methicillin resistant S. aureus (MRSA), E. faecalis and vancomycin resistant E. faecalis, the Gram-negative organisms tested were P. aeruginosa, E. coli and K. pneumoniae .
# (§2) For MIC testing, all isolates were tested against 5-FU by broth microdilution following CLSI methodology (M7-A7).
# [2] = tested on: E. faecalis; assay: as above
# Method: as §1, §2
# [3] = tested on: P. aeruginosa; assay: as above; conditions: Pseudomonas aeruginosa, N=100
# Method: as §1, §2
# [4] = tested on: S. epidermidis; assay: as above; conditions: Staphylococcus epidermidis
# Method: as §1, §2
# [5] = tested on: K. pneumoniae; assay: as above; conditions: Klebsiella pneumoniae, N=104
# Method: as §1, §2
# [6] = tested on: E. coli; assay: as above; conditions: Escherichia coli, N=102
# Method: as §1, §2
# [7] = tested on: K. pneumoniae; assay: Multi-organism zone-of-inhibition screening (Example 15); conditions: 24 hr, one sample per plate, antibiotic disks 6 mm (Gentamicin 10 μg, penicillin 10 units)
# Method: (§3) The 5-FU CVC was compared with the commercially available Arrow CVC. Gentamicin (10 μg) or penicillin (10 units) disks were used as positive controls and CVC was used as the negative control. The samples were challenged with 3 species of Gram-positive bacteria, 4 species of Gram-negative bacteria and 1 type of yeast. The organisms used to challenge the samples were the following ATCC strains: S. aureus, Methicillin Resistant Staphylococcus aureus (MRSA), S. epidermidis, K. pneumoniae, and Vancomycin Resistant Pediococcus (VRP), E. coli, P. aeruginosa and C. albicans.
# (§4) Organisms were inoculated into 2 mL of liquid agar, which was poured on top of solidified agar. One plate was made per organism. Test articles were inserted into the agar when the plates were solidified and dry. ZOI results were recorded at 24 hr. […] Each plate also contained one negative and one positive control sample and 1 Arrow CVC sample.
# [8] = tested on: E. coli; assay: as above; conditions: 24 hr, one sample per plate, antibiotic disks 6 mm (Gentamicin 10 μg, penicillin 10 units)
# Method: as §3, §4
# [9] = tested on: Methicillin Resistant Staphylococcus aureus (MRSA); assay: as above; conditions: 24 hr, one sample per plate, antibiotic disks 6 mm (Gentamicin 10 μg, penicillin 10 units)
# Method: as §3, §4
# [10] = tested on: P. aeruginosa; assay: as above; conditions: 24 hr, one sample per plate, antibiotic disks 6 mm (Gentamicin 10 μg, penicillin 10 units)
# Method: as §3
# (§5) Organisms were inoculated into 2 mL of liquid agar, which was poured on top of solidified agar. One plate was made per organism. Test articles were inserted into the agar when the plates were solidified and dry. ZOI results were recorded at 24 hr. Three 0.5-cm sections of the 5-FU CVC were tested on each plate. Each plate also contained one negative and one positive control sample and 1 Arrow CVC sample.
# [11] = tested on: S. aureus; assay: as above; conditions: 24 hr, one sample per plate, antibiotic disks 6 mm (Gentamicin 10 μg, penicillin 10 units)
# Method: as §3, §4
# [12] = tested on: S. epidermidis; assay: as above; conditions: 24 hr, one sample per plate, antibiotic disks 6 mm (Gentamicin 10 μg, penicillin 10 units)
# Method: as §3, §4
# [13] = tested on: Vancomycin Resistant Pediococcus (VRP); assay: as above; conditions: 24 hr, one sample per plate, antibiotic disks 6 mm (Gentamicin 10 μg, penicillin 10 units)
# Method: as §3, §4
# [14] = tested on: C. albicans; assay: as above; conditions: 24 hr, one sample per plate, antibiotic disks 6 mm (Gentamicin 10 μg, penicillin 10 units)
# Method: as §3, §5
compound,measurement,setting,value
C[C@H]1COc2c(N3CCN(C)CC3)c(F)cc3c(=O)c(C(=O)O)cn1c23 [Levofloxacin],MIC90,"[1]; Oxacillin-R, N=40",32 µg/mL
same,MIC90,"[1]; Oxacillin-S, N=61",16 µg/mL
same,MIC90,"[1]; all, N=101",32 µg/mL
same,MIC90,"[2]; Enterococcus faecalis, all, N=101, read-out: MIC90",64 µg/mL
same,MIC90,"[2]; Vancomycin-R, N=21",64 µg/mL
same,MIC90,"[2]; Vancomycin-S, N=80",64 µg/mL
same,MIC90,[3],32 µg/mL
same,MIC90,"[4]; Oxacillin-R, N=78",> 128 µg/mL
same,MIC90,"[4]; Oxacillin-S, N=22",128 µg/mL
same,MIC90,"[4]; all, N=100",> 128 µg/mL
same,MIC90,[5],0.12 µg/mL
same,MIC90,[6],16 µg/mL
Gentamicin,ZOI,[7],9.5 mm
same,ZOI,[8],10.5 mm
same,ZOI,[9],7.1 mm
same,ZOI,[10],12.5 mm
Penicillin,ZOI,[11],41.3 mm
same,ZOI,[12],0 mm
same,ZOI,[13],0 mm
same,ZOI,[14],0 mm
